Patent US10011814B2, “Salt formulations for the fermentation of marine microorganisms” (Triphase Research and Development I Corp., priority 2006, dated 2018)

System: Salinispora tropica NPS021184
Assay: Production of Salinosporamide A and analogs in shake flask or tube culture; titers by HPLC of EtOAc extract
Details: for % Increase (+) or % decrease (−) of maximum titer: Ex.1 Table 1; for % Increase (+) or % decrease (−) of max titer: Ex.1 Table 2; for % increase/decrease of titer / relative % change (of % relative to Sal A): Ex.2 Table 3; for % Increase (+) or % decrease (−) of average max titer: Ex.2 Table 4; for relative decrease in production (relative to Salinosporamide A): 208 μg/L CoCl2·6H2O in seed medium, 52 μg/L in production medium vs no cobalt in seed
Protocol: Seed cultures were prepared by inoculating frozen stock of Salinispora tropica NPS021184 into seed medium.
(§1) The first seed cultures (either 10 mL medium in a 50-mL tube or 100 mL medium in a 500-mL Erlenmeyer flask) were incubated for 3 to 4 days before inoculating into the second seed media with the same composition as the first seed cultures. The second seed cultures (100 mL medium in a 500-mL Erlenmeyer flask) were incubated for two days before inoculating into the production medium (100 mL medium in a 500-mL Erlenmeyer flask).
The chemically defined salt formulation included: […]
(§2) 3.5 mL of the fermentation culture was mixed with equal volume of EtOAc in an extraction tube to extract the various metabolites from the production culture. The mixture was shaken on a shaker for one hr. An aliquot of the extract (1 mL) was removed and dried under a stream of nitrogen. The dried extract was stored at −20° C. freezer before HPLC analysis. The dried extract was resuspended in 320 μL DMSO and injected into HPLC using the 00TF14 method for analysis.
The production of Salinosporamide A, NPI-0047 and NPI-2065 was monitored by Agilent HP1100 HPLC using an ACE C-18 reversed-phase column (4.6×150 mm), and solvent system consisting of water (0.01% TFA) as solvent A and acetonitrile (0.01% TFA) as solvent B. The elution was started at 100% solvent A for 1 min, 100% solvent A to 35% solvent A gradient in 7 min, held at 35% solvent A for 11 min, 35% solvent A to 100% solvent B in 8 min and held at 100% solvent B for 9 min at a flow rate of 1.5 mL/min with the detector wavelength set at 210 nm and column temperature 35° C.
The first seed cultures (either 10 mL medium in a 50-mL tube or 100 ml medium in a 500-ml Erlenmeyer flask) were incubated for 3 to 4 days before inoculating into the second seed media with the same composition as the first seed cultures. The second seed cultures (100 mL medium in a 500-mL Erlenmeyer flask) were incubated for two days before inoculating into the production medium (100 mL medium in a 500-mL Erlenmeyer flask).
as §1, with “in a 50-ml tube or” for “in a 50-mL tube or”, “inoculating into production medium” for “inoculating into the production medium”
as §2, with “shaken” for “shaken on a shaker”, “1” for “one”, “[…]” for “μL”, “TFS7” for “00TF14”
The production of Salinosporamide A, NPI-0047 and NPI-2065 was monitored by Agilent HP1100 HPLC using an ACE C-18 reversed-phase column (4.6×150 mm), and isocratic solvent system consisting of 67% water (0.01% TFA) and 33% acetonitrile (0.01% TFA). The flow rate was 1.5 mL/min for 15 min with the detector wavelength set at 210 nm and column temperature 35° C.
3.5 mL of the fermentation culture was mixed with equal volume of EtOAc in an extraction tube to extract the various metabolites from the production culture. The mixture was shaken on the shaker for 1 hr. An aliquot of the extract (1 mL) was removed and dried under a stream of nitrogen. The dried extract was stored at −20° C. freezer before HPLC analysis. The dried extract was resuspended in 320 μL DMSO and injected into HPLC using the TFS7 method for analysis. […]

[1] = 104 μg/L CoCl2·6H2O in production medium vs no addition
[2] = 1.04 mg/L CoCl2·6H2O in production medium vs no addition
[3] = 10.4 mg/L CoCl2·6H2O in production medium vs no addition
[4] = 2.6 μg/L CoCl2·6H2O in production medium vs control
[5] = 5.2 μg/L CoCl2·6H2O in production medium vs control
[6] = 6.5 μg/L CoCl2·6H2O in production medium vs control
[7] = 13 μg/L CoCl2·6H2O in production medium vs control
[8] = 26 μg/L CoCl2·6H2O in production medium vs control
[9] = 52 μg/L CoCl2·6H2O in production medium vs control
[10] = 104 μg/L CoCl2·6H2O in production medium vs control
[11] = 208 μg/L CoCl2·6H2O in production medium vs control
[12] = 416 μg/L CoCl2·6H2O in production medium vs control
[13] = seed CoCl2·6H2O 0 μg/L (reference)
[14] = seed CoCl2·6H2O 2.6 μg/L vs 0 μg/L
[15] = seed CoCl2·6H2O 5.2 μg/L vs 0 μg/L
[16] = seed CoCl2·6H2O 13 μg/L vs 0 μg/L
[17] = seed CoCl2·6H2O 26 μg/L vs 0 μg/L
[18] = seed CoCl2·6H2O 52 μg/L vs 0 μg/L
[19] = seed CoCl2·6H2O 104 μg/L vs 0 μg/L
[20] = seed CoCl2·6H2O 208 μg/L vs 0 μg/L
[21] = seed CoCl2·6H2O 416 μg/L vs 0 μg/L
[22] = CoCl2·6H2O seed 0 / production 52 μg/L vs no cobalt
[23] = CoCl2·6H2O seed 208 μg/L / production 52 μg/L vs no cobalt
[24] = Ex.2, cobalt in both seed (208 μg/L) and production (52 μg/L) media vs media without cobalt
[25] = Ex.2, cobalt in seed and production media vs cobalt in production medium only

Structure (SMILES) | % Increase (+) or % decrease (−) of maximum titer [1] [%] | % Increase (+) or % decrease (−) of maximum titer [2] [%] | % Increase (+) or % decrease (−) of maximum titer [3] [%] | % Increase (+) or % decrease (−) of max titer [4] | % Increase (+) or % decrease (−) of max titer [5] [%] | % Increase (+) or % decrease (−) of max titer [6] | % Increase (+) or % decrease (−) of max titer [7] [%] | % Increase (+) or % decrease (−) of max titer [8] | % Increase (+) or % decrease (−) of max titer [9] [%] | % Increase (+) or % decrease (−) of max titer [10] [%] | % Increase (+) or % decrease (−) of max titer [11] | % Increase (+) or % decrease (−) of max titer [12] [%] | % increase/decrease of titer [13] [%] | % increase/decrease of titer [14] [%] | % increase/decrease of titer [15] [%] | % increase/decrease of titer [16] [%] | % increase/decrease of titer [17] [%] | % increase/decrease of titer [18] [%] | % increase/decrease of titer [19] [%] | % increase/decrease of titer [20] [%] | further results
CC[C@H]1C(=O)N[C@@]2([C@@H](O)[C@@H]3C=CCCC3)C(=O)O[C@@]12C [NPI-0047, Salinosporamide B] | −65.9 | −67.4 | −71.3 | −18.6% | −41.2 | −38.2% | −52.0 | −63.7% | −69.6 | −65.7 | −69.6% | −73.5 | 0.0 | 5.9 | 2.0 | −17.2 | −2.3 | −21.6 | −9.2 | −11.9 | reduction of concentration in the fermentation (Ex.14, 0.22 μM vitamin B12 added to production medium (Instant Ocean based)): 74%; reduction of production (Ex.1, 52 μg/L cobalt concentration in production medium vs control): 69.6%; decrease in production (Ex.1, 104 μg/L CoCl2·6H2O added to production medium vs none): 66%; relative % change (of % relative to Sal A) [13]: 0.0%; relative % change (of % relative to Sal A) [14]: 4.2%; relative % change (of % relative to Sal A) [15]: −2.7%; relative % change (of % relative to Sal A) [16]: −20.2%; relative % change (of % relative to Sal A) [17]: −28.4%; relative % change (of % relative to Sal A) [18]: −36.1%; relative % change (of % relative to Sal A) [19]: −29.9%; relative % change (of % relative to Sal A) [20]: −41.3%; % increase/decrease of titer [21]: −10.4%; relative % change (of % relative to Sal A) [21]: −21.5%; % Increase (+) or % decrease (−) of average max titer [22]: −71.7%; % Increase (+) or % decrease (−) of average max titer [23]: −78.0%; reduction of production by cobalt (Ex.21, NPS21184, CoCl2·6H2O 208 μg/L seed, 52 μg/L production vs no cobalt): 91%; relative decrease in production (relative to Salinosporamide A) (Ex.2): 41.3%; reduction of production [24]: 78.0%; reduction of production [25]: 22.2%
C[C@@]12OC(=O)[C@]1([C@@H](O)[C@@H]1C=CCCC1)NC(=O)[C@H]2CCCl [NPI-2065] | −21.0 | −12.2 | −30.8 | −7.6% | −1.5 | −6.1% | −1.5 | +3.0% | −4.6 | −1.5 | −6.1% | −15.2 | 0.0 | 1.7 | 4.2 | 5.9 | 23.1 | 17.7 | 15.5 | 19.7 | reduction of concentration in the fermentation (Ex.14, vitamin B12 in Instant Ocean based medium): 30%; reduction of concentration in the fermentation (Ex.15, Vitamin B12 or CoCl2·6H2O at 0.22 μM in salt formulation based medium): no reduction; maximum inhibition of production (Ex.1, 416 μg/L, highest cobalt concentration tested in production medium): 15%; inhibition of production (Ex.1, 10.4 mg/L CoCl2·6H2O in production medium vs none): 30.8%; relative % change (of % relative to Sal A) [13]: 0.0%; relative % change (of % relative to Sal A) [14]: 0.0%; relative % change (of % relative to Sal A) [15]: −0.5%; relative % change (of % relative to Sal A) [16]: 3.5%; relative % change (of % relative to Sal A) [17]: 3.5%; relative % change (of % relative to Sal A) [18]: 7.9%; relative % change (of % relative to Sal A) [19]: −0.5%; relative % change (of % relative to Sal A) [20]: −1.4%; % increase/decrease of titer [21]: 6.2%; relative % change (of % relative to Sal A) [21]: −3%; % Increase (+) or % decrease (−) of average max titer [22]: −37.2%; % Increase (+) or % decrease (−) of average max titer [23]: −44.9%; relative decrease in production (relative to Salinosporamide A) (Ex.2): 1.4%; reduction of production [24]: 44.9%; reduction of production [25]: 12.2%
C[C@@]12OC(=O)[C@]1([C@@H](O)[C@@H]1C=CCCC1)NC(=O)[C@@H]2CCCl [Salinosporamide A] | 1.5 | 2.2 | −1.4 | +1.1% | −8.9 | +1.2% | −0.3 | −4.0% | −4.5 | −3.0 | +0.2% | −8.5 | 0.0 | 1.7 | 4.7 | 2.5 | 20.3 | 10.7 | 15.9 | 20.8 | maximum production as % of the high sodium medium (Ex.11, low sodium medium (9.3 mM sodium, SHY.KCD) vs high sodium medium (413 mM sodium, SHY.B4C)): about 75%; % increase/decrease of titer [21]: 9.2%; % Increase (+) or % decrease (−) of average max titer [22]: +10.1%; % Increase (+) or % decrease (−) of average max titer [23]: 33.9%; % Increase (+) or % decrease (−) of average max titer (CoCl2·6H2O seed 208 μg/L / production 52 μg/L vs no cobalt, listed as SALINOSPORAMIDE A): +33.9%; concentration as % of the saline fermentation condition (Ex.23, low chloride medium (LoCl.PD) vs saline medium): about 35%; increase of production [25]: 21.6%
